Measured values reported in ChEMBL document CHEMBL5550201, “Discovery of a Highly Potent, Selective and Efficacious USP7 Degrader for the Treatment of Acute Lymphoblastic Leukemia” (J Med Chem, 2024).
Active and inactive are the calls of the source. The rule behind the calls is not given here.

Tests used:
BT-549 = experiment: Antiproliferative activity against human BT-549 cells assessed as cell viability measured after 6 days by Celltiter glo2.0 cell viability assay; assay type: functional, cell-based; conditions: BT-549, 144 h
[1] = target: Protein cereblon/Ubiquitin carboxyl-terminal hydrolase 7 (Homo sapiens, UniProt Q93009+Q96SW2); experiment: PROTACT activity at USP7/CRBN in human CAL-33 cells assessed as protein degradation measured after 72 hrs by immune blot analysis; assay type: cell-based
MDA-MB-468 = experiment: Antiproliferative activity against human MDA-MB-468 cells assessed as cell viability measured after 6 days by Celltiter glo2.0 cell viability assay; assay type: functional, cell-based; conditions: MDA-MB-468, 144 h
[2] = target: T1, von Hippel-Lindau disease tumor suppressor/Ubiquitin carboxyl-terminal hydrolase 7 (Homo sapiens, UniProt Q93009+P40337); experiment: PROTACT activity at USP7/VHL in human RS4;11 cells assessed as protein degradation at 100 nM measured after 24 hrs by Western blot analysis relative to control; assay type: cell-based
[3] = target: T1, von Hippel-Lindau disease tumor suppressor/Ubiquitin carboxyl-terminal hydrolase 7; experiment: PROTACT activity at USP7/VHL in human RS4;11 cells assessed as protein degradation at 10 nM measured after 24 hrs by Western blot analysis relative to control; assay type: cell-based
RS4-11 [4] = experiment: Antiproliferative activity against human RS4-11 cells with shp53 assessed as cell viability measured after 7 days by PMS-MTS assay; assay type: functional, cell-based; conditions: RS4-11, 168 h
REH = experiment: Antiproliferative activity against human REH cells with wild type p53 assessed as cell viability measured after 3 days by PMS-MTS assay; assay type: functional, cell-based; conditions: 72 h
[5] = target: T1, von Hippel-Lindau disease tumor suppressor/Ubiquitin carboxyl-terminal hydrolase 7; experiment: PROTACT activity at USP7/VHL in human OCI-Ly10 cells assessed as protein degradation at 10 to 100 nM measured after 12 hrs by Western blot analysis; assay type: cell-based; conditions: dose 10-100 nM
[6] = target: T1, von Hippel-Lindau disease tumor suppressor/Ubiquitin carboxyl-terminal hydrolase 7; experiment: PROTACT activity at USP7/VHL in human RS4;11 cells assessed as protein degradation at 10 to 100 nM measured after 12 hrs by Western blot analysis; assay type: cell-based; conditions: dose 10-100 nM
[7] = target: T1, von Hippel-Lindau disease tumor suppressor/Ubiquitin carboxyl-terminal hydrolase 7; experiment: PROTACT activity at USP7/VHL in human REH cells assessed as protein degradation at 10 to 100 nM measured after 12 hrs by Western blot analysis; assay type: cell-based; conditions: dose 10-100 nM
RS4-11 [8] = experiment: Antiproliferative activity against human RS4-11 cells with wild type p53 assessed as cell viability measured after 3 days by PMS-MTS assay; assay type: functional, cell-based; conditions: RS4-11, 72 h
[9] = target: von Hippel-Lindau disease tumor suppressor/USP7; experiment: PROTACT activity at USP7 (unknown origin) /E3 ligase (unknown origin) assessed as protein degradation

T1 sequence (P40337 whole entry, looked up): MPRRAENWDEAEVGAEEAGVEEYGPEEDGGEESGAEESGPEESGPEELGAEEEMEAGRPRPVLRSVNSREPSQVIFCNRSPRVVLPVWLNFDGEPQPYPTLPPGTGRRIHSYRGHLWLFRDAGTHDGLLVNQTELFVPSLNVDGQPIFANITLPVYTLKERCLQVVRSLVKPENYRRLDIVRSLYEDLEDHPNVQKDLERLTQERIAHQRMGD
T1 sequence (Q93009 whole entry, looked up): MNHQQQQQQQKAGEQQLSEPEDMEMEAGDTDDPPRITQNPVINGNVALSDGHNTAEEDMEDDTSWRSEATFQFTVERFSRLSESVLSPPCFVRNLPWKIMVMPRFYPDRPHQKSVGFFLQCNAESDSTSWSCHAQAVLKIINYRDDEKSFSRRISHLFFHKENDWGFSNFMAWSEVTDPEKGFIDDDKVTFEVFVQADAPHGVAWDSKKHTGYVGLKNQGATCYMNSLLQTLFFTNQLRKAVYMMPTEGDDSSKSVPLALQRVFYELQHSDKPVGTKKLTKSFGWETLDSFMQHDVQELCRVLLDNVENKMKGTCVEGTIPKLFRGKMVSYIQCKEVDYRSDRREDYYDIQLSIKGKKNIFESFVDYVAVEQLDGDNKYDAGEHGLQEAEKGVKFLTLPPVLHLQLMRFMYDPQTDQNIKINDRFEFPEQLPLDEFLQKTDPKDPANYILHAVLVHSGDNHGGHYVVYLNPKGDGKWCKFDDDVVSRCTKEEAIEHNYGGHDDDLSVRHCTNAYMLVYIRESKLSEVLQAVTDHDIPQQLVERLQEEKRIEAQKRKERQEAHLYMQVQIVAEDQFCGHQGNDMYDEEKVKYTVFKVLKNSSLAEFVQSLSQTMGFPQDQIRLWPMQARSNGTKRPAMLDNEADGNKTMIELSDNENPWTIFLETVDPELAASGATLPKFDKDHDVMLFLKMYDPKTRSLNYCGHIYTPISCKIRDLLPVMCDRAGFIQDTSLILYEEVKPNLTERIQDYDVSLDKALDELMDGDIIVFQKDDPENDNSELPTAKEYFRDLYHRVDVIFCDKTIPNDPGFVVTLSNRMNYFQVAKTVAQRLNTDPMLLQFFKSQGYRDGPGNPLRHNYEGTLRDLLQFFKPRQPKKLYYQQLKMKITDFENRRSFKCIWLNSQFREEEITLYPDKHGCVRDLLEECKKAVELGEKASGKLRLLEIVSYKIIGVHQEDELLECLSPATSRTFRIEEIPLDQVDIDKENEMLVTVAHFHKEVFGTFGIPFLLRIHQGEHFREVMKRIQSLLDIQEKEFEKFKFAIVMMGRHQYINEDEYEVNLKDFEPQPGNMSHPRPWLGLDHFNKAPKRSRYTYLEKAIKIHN
Sequence of Protein cereblon/Ubiquitin carboxyl-terminal hydrolase 7 (Q93009 whole entry): as the sequence (Q93009 whole entry, looked up) above
Sequence of Protein cereblon/Ubiquitin carboxyl-terminal hydrolase 7 (Q96SW2 whole entry): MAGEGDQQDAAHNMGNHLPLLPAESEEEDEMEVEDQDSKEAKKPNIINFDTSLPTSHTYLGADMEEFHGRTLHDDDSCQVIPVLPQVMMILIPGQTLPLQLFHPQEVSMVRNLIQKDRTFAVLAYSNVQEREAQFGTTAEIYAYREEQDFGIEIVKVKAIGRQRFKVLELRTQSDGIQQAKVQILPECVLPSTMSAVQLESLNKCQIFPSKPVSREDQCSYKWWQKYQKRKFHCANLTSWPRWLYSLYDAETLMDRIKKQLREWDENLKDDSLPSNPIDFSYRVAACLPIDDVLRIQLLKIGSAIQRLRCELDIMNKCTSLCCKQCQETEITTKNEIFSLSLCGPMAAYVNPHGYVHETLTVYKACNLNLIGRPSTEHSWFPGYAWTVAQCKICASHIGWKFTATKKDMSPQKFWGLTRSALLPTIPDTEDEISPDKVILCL

| SMILES | Activity [2] | Activity [3] | also measured |
| --- | --- | --- | --- |
| O=C1CCC(N2Cc3c(CCCCCN4CCN(CCC(=O)Nc5ccc6c(=O)n(CC7(O)CCN(C(=O)C(CCCNC(=O)c8ccc9c(Cl)c%10c(nc9c8)CCCC%10)Cc8ccccc8)CC7)cnc6c5)CC4)cccc3C2=O)C(=O)N1 (configuration not stated) |  |  | IC50 (BT-549): 2800 nM; DC50 [1]: 4.3 nM; IC50 (MDA-MB-468): 1800 nM |
| Cc1ncsc1-c1ccc([C@H](C)NC(=O)[C@@H]2C[C@@H](O)CN2C(=O)[C@@H](NC(=O)CCCCCCCCNCc2ccc(-c3c4ncn(CC5(O)CCN(C(=O)C[C@@H](C)c6ccccc6)CC5)c(=O)c4nn3C)cc2)C(C)(C)C)cc1 | 39.1% | 26.1% |  |
| Cc1ncsc1-c1ccc([C@H](C)NC(=O)[C@@H]2C[C@@H](O)CN2C(=O)[C@@H](NC(=O)CCCCCCCCCCCNCc2ccc(-c3c4ncn(CC5(O)CCN(C(=O)C[C@@H](C)c6ccccc6)CC5)c(=O)c4nn3C)cc2)C(C)(C)C)cc1 | 75.5% | 31.9% |  |
| Cc1ncsc1-c1ccc([C@H](C)NC(=O)[C@@H]2C[C@@H](O)CN2C(=O)[C@@H](c2cc(N3CCC(CN4CC(CNCc5ccc(-c6c7ncn(CC8(O)CCN(C(=O)C[C@@H](C)c9ccccc9)CC8)c(=O)c7nn6C)cc5)C4)CC3)no2)C(C)C)cc1 | 55.1% | 35% |  |
| Cc1ncsc1-c1ccc([C@H](C)NC(=O)[C@@H]2C[C@@H](O)CN2C(=O)[C@@H](c2cc(N3CCC(N4CC(NCc5ccc(-c6c7ncn(CC8(O)CCN(C(=O)C[C@@H](C)c9ccccc9)CC8)c(=O)c7nn6C)cc5)C4)CC3)no2)C(C)C)cc1 | 16.9% | 16% |  |
| Cc1ncsc1-c1ccc([C@H](C)NC(=O)[C@@H]2C[C@@H](O)CN2C(=O)[C@@H](NC(=O)CCCCCCCCCNCc2ccc(-c3c4ncn(CC5(O)CCN(C(=O)C[C@@H](C)c6ccccc6)CC5)c(=O)c4nn3C)cc2)C(C)(C)C)cc1 | 55.1% | 29.2% |  |
| Cc1ncsc1-c1ccc([C@H](C)NC(=O)[C@@H]2C[C@@H](O)CN2C(=O)[C@@H](NC(=O)CCCCCCCNCc2ccc(-c3c4ncn(CC5(O)CCN(C(=O)C[C@@H](C)c6ccccc6)CC5)c(=O)c4nn3C)cc2)C(C)(C)C)cc1 | 58.1% | 46.9% |  |
| Cc1ncsc1-c1ccc([C@H](C)NC(=O)[C@@H]2C[C@@H](O)CN2C(=O)[C@@H](NC(=O)CCOCCOCCNCc2ccc(-c3c4ncn(CC5(O)CCN(C(=O)C[C@@H](C)c6ccccc6)CC5)c(=O)c4nn3C)cc2)C(C)(C)C)cc1 | 26.8% | 12.8% |  |
| Cc1ncsc1-c1ccc([C@H](C)NC(=O)[C@@H]2C[C@@H](O)CN2C(=O)[C@@H](c2cc(N3CCC(CN4CCC(NCc5ccc(-c6c7ncn(CC8(O)CCN(C(=O)C[C@@H](C)c9ccccc9)CC8)c(=O)c7nn6C)cc5)CC4)CC3)no2)C(C)C)cc1 | 37.7% | 22.2% |  |
| Cc1ncsc1-c1ccc([C@H](C)NC(=O)[C@@H]2C[C@@H](O)CN2C(=O)[C@@H](c2cc(N3CCC(N4CCC(NCc5ccc(-c6c7ncn(CC8(O)CCN(C(=O)C[C@@H](C)c9ccccc9)CC8)c(=O)c7nn6C)cc5)CC4)CC3)no2)C(C)C)cc1 | 37.3% | 25.6% |  |
| Cc1ncsc1-c1ccc([C@H](C)NC(=O)[C@@H]2C[C@@H](O)CN2C(=O)[C@@H](NC(=O)CCCCCNCc2ccc(-c3c4ncn(CC5(O)CCN(C(=O)C[C@@H](C)c6ccccc6)CC5)c(=O)c4nn3C)cc2)C(C)(C)C)cc1 | 56.5% | 38% |  |
| Cc1ncsc1-c1ccc([C@H](C)NC(=O)[C@@H]2C[C@@H](O)CN2C(=O)[C@@H](c2cc(N3CCC(N4CC(CNCc5ccc(-c6c7ncn(CC8(O)CCN(C(=O)C[C@@H](C)c9ccccc9)CC8)c(=O)c7nn6C)cc5)C4)CC3)no2)C(C)C)cc1 | 25.6% | 15.5% |  |
| Cc1ncsc1-c1ccc([C@H](C)NC(=O)[C@@H]2C[C@H](O)CN2C(=O)[C@@H](c2cc(N3CCN(Cc4ccc(-c5c6ncn(CC7(O)CCN(C(=O)C[C@@H](C)c8ccccc8)CC7)c(=O)c6nn5C)cc4)CC3)no2)C(C)C)cc1 |  |  | IC50 (RS4-11 [4]): > 20000 nM; IC50 (REH): 7390 nM; Activity [5]: inactive; Activity [6]: inactive; Activity [7]: inactive; IC50 (RS4-11 [8]): 873 nM |
| Cc1ncsc1-c1ccc([C@H](C)NC(=O)[C@@H]2C[C@@H](O)CN2C(=O)[C@@H](c2cc(N3CCC(CN4CCC(CNCc5ccc(-c6c7ncn(CC8(O)CCN(C(=O)C[C@@H](C)c9ccccc9)CC8)c(=O)c7nn6C)cc5)CC4)CC3)no2)C(C)C)cc1 | 73.5% | 50.8% |  |
| C[C@H](CC(=O)N1CCC(O)(Cn2cnc3c(-c4ccc(CN)cc4)n(C)nc3c2=O)CC1)c1ccccc1 |  |  | IC50 (RS4-11 [4]): > 20000 nM; IC50 (REH): 20.3 nM; IC50 (RS4-11 [8]): 69 nM |
| Cc1ncsc1-c1ccc([C@H](C)NC(=O)[C@@H]2C[C@@H](O)CN2C(=O)[C@@H](NC(=O)CCOCCOCCOCCNCc2ccc(-c3c4ncn(CC5(O)CCN(C(=O)C[C@@H](C)c6ccccc6)CC5)c(=O)c4nn3C)cc2)C(C)(C)C)cc1 | 33.6% | 26.1% |  |
| Cc1ncsc1-c1ccc([C@H](C)NC(=O)[C@@H]2C[C@@H](O)CN2C(=O)[C@@H](c2cc(N3CCC(CN4CC(NCc5ccc(-c6c7ncn(CC8(O)CCN(C(=O)C[C@@H](C)c9ccccc9)CC8)c(=O)c7nn6C)cc5)C4)CC3)no2)C(C)C)cc1 | 60.2% | 0.4% |  |
| Cc1ncsc1-c1ccc([C@H](C)NC(=O)[C@@H]2C[C@@H](O)CN2C(=O)[C@@H](c2cc(N3CCC(CNCc4ccc(-c5c6ncn(CC7(O)CCN(C(=O)C[C@@H](C)c8ccccc8)CC7)c(=O)c6nn5C)cc4)CC3)no2)C(C)C)cc1 | 91.3% | 69.5% |  |
| Cc1ncsc1-c1ccc([C@H](C)NC(=O)[C@@H]2C[C@@H](O)CN2C(=O)[C@@H](NC(=O)CCOCCOCCOCCOCCNCc2ccc(-c3c4ncn(CC5(O)CCN(C(=O)C[C@@H](C)c6ccccc6)CC5)c(=O)c4nn3C)cc2)C(C)(C)C)cc1 | 44.4% | 13% |  |
| C[C@H](CC(=O)N1CCC(O)(Cn2cnc3c(-c4ccc(CNCCCCCCCCCCCNc5cccc6c5C(=O)N(C5CCC(=O)NC5=O)C6=O)cc4)n(C)nc3c2=O)CC1)c1ccccc1 (some centres not stated) |  |  | DC50 [9]: ~33 nM |
| Cc1ncsc1-c1ccc([C@H](C)NC(=O)[C@@H]2C[C@@H](O)CN2C(=O)[C@@H](NC(=O)CCCCCCCCCCNCc2ccc(-c3c4ncn(CC5(O)CCN(C(=O)C[C@@H](C)c6ccccc6)CC5)c(=O)c4nn3C)cc2)C(C)(C)C)cc1 | 66.7% | 30.1% |  |
